Some results are limits rather than exact numbers.

Results on 19 compounds are retold here after patent US10562912B2 (C&C Research Laboratories, priority 2013, dated 2020).

Assay type in all cases: cell-based
One test relates to AGS. The test can be described thus: Cell growth inhibition assay, stomach cancer cell line AGS. The conditions noted are these: Homo sapiens; AGS stomach cancer cell line, 3,000 cells/well. As for the experimental part:
The inhibitory effects of the compounds of the present invention against the growth of cancer cells were evaluated as shown below. The cancer cell lines including stomach cancer cell line (AGS), breast cancer cell lines (MDA-MB-231, MDA-MB-468, and BT-549), prostate cancer cell lines (LNCaP and DU-145), colon cancer cell line (HCT116), ovarian cancer cell line (SW626), liver cancer cell line (Hep3B), kidney cancer cell line (ACHN), lung cancer cell line (NCI-H23) and blood cancer cell lines (HEL92.1.7 and U266) were cultured under the protocol provided by each supplier. A medium supplemented with 10 ng/mL of IL-6 was used for LNCaP, a prostate cancer cell line, when treated with a drug. Each type of cells to be used in experiments were sub-cultured in a 96-well plate by counting the exact number of cells using Tali™ Image-based Cytometer (Life Technologies). In a 96-well plate, AGS, HCT116, and DU-145 were employed with 3,000 cells/well; NCI-H23, SW626, Hep3B, ACHN, BT-549, MDA-MB-231, HEL92.1.7, and U266 were employed with 5,000 cells/well; and LNCaP and MDA-MB-468 were employed with 10,000 cells/well. The cells were treated with the compounds listed in Examples which were diluted in various concentrations. Upon completion of the compounds treatment, AGS, HCT116, SW626, DU145, NCI-H23, Hep3B, ACHN, BT-549, LNCaP, HEL92.1.7, and U266 cells were cultured at 37° C. under 5% CO2 for from 72 to 96 hours, and MDA-MB-231 and MDA-MB-468 cells were cultured at 37° C. in air for from 72 to 96 hours. Subsequently, the cells were observed under microscope and drug precipitation and particular findings were investigated and recorded. And then, the 96-well plate was placed at room temperature for 30 minutes, added with 20 μL/well of CellTiter-Glo solution (Cat No. G7573, Promega) and shaken for 10 minutes, followed by being subjected to the measurement using PHERAstar™ microplate reader (BMG LABTECH) according to the supplier's general luminometer protocol. Wells where only culture liquid added without cell plating were used as a negative control, whereas wells where culture liquid containing 0.1% DMSO instead of the compounds listed in Examples were used as a positive control.

For the next test, the system named is LNCaP. The test can be described thus: Cell growth inhibition assay, prostate cancer cell line LNCaP (medium with 10 ng/mL IL-6). The conditions noted are these: Homo sapiens, medium supplemented with 10 ng/mL of IL-6, 10,000 cells/well.
The next test has as its target T1, STAT3 (Homo sapiens, UniProt P40763).
T1 construct: plasmid pSTAT3-TA-luc), which contains a stably operating STAT3 promoter; endogenous in cells
The test can be described thus: STAT3 reporter gene assay (luciferase), LNCaP stable cell line (pSTAT3-TA-luc), IL-6 stimulation. Put shortly: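 Cytotoxicity was run on a duplicate plate with CellTiter-Glo, while the other plate gave luciferase read-outs from lysed LNCaP pSTAT3-TA-luc reporter cells. Cells were treated with graded compound concentrations plus IL-6 (10 ng/mL final) for 24–48 h in 3% DCC-FBS medium. Unstimulated and stimulated wells served as negative and positive controls.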
(Reporter assays use an easily measured gene product as a stand-in for the process of interest.)

T1 sequence (P40763 whole entry): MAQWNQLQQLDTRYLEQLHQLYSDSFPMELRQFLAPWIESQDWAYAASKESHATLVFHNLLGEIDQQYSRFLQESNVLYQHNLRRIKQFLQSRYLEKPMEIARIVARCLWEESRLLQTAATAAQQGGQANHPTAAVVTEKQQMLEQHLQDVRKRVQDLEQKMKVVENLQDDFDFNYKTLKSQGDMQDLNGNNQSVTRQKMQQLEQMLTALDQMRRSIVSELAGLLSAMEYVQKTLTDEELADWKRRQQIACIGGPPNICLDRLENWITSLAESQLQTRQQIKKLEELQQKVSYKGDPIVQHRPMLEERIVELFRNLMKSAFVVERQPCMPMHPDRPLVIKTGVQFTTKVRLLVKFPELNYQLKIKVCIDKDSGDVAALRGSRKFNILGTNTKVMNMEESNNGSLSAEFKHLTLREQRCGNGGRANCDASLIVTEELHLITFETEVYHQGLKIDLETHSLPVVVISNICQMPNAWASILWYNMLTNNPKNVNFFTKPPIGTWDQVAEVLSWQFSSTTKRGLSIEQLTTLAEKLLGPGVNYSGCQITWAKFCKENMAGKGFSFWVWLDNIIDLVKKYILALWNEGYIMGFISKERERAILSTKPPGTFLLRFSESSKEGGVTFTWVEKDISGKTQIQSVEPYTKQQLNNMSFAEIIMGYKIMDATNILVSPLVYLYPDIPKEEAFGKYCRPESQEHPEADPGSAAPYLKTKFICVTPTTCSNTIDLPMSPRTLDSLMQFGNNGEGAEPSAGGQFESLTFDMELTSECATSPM

As for `CS(=O)(=O)Nc1ccc2cc(C(=O)Nc3cccc(-c4ccc(C#N)cc4C(F)(F)F)c3)[nH]c2c1` [Example 284, N-(4′-cyano-2′-(trifluoromethyl)-[1,1′-biphenyl]-3-yl)-6-(methylsulfonamido)-1H-indole-2-carboxamide], the figures for the IC50 in the test with AGS, with LNCaP and against STAT3 were 11.3 µM, 3.1 µM and 1.9 µM, respectively.
On the same counts, the results for `CS(=O)(=O)Nc1ccc2cc(C(=O)Nc3cccc(-c4ccc([N+](=O)[O-])cc4C(F)(F)F)c3)[nH]c2c1` [Example 285, 6-(methylsulfonamido)-N-(4′-nitro-2′-(trifluoromethyl)-[1,1′-biphenyl]-3-yl)-1H-indole-2-carboxamide] are 13.6 µM, 3.3 µM and 2.5 µM.
For the compound `COC(=O)c1ccc(C(F)(F)F)c(-c2cccc(NC(=O)c3cc4ccc([N+](=O)[O-])cc4[nH]3)c2)c1` [Example 286, methyl 3′-(6-nitro-1H-indole-2-carboxamido)-6-(trifluoromethyl)-[1,1′-biphenyl]-3-carboxylate], the IC50 (in general, the concentration needed to halve the response being measured) was 10.2 µM in the test with AGS, above 10 µM with LNCaP and above 10 µM on STAT3.
Regarding `COC(=O)c1ccc(C(F)(F)F)c(-c2cccc(NC(=O)c3cc4ccc(NS(C)(=O)=O)cc4[nH]3)c2)c1` [Example 287, methyl 3′-(6-(methylsulfonamido)-1H-indole-2-carboxamido)-6-(trifluoromethyl)-[1,1′-biphenyl]-3-carboxylate], the results for the IC50 with AGS, in the test on LNCaP and at STAT3 were 23.6 µM, above 10 µM and above 10 µM, respectively.
As to `COC(=O)c1cc(-c2cccc(NC(=O)c3cc4ccc([N+](=O)[O-])cc4[nH]3)c2)c(C(F)(F)F)cc1OC` [Example 288, methyl 4-methoxy-3′-(6-nitro-1H-indole-2-carboxamido)-6-(trifluoromethyl)-[1,1′-biphenyl]-3-carboxylate], the IC50 with AGS is above 50 µM; in the test on LNCaP, above 10 µM; against STAT3, above 10 µM.
With `COC(=O)c1cc(-c2cccc(NC(=O)c3cc4ccc(NS(C)(=O)=O)cc4[nH]3)c2)c(C(F)(F)F)cc1OC` [Example 289, methyl 4-methoxy-3′-(6-(methylsulfonamido)-1H-indole-2-carboxamido)-6-(trifluoromethyl)-[1,1′-biphenyl]-3-carboxylate], the results for the IC50 with AGS, in the test on LNCaP and at STAT3 were 32 µM, above 10 µM and above 10 µM, respectively.
With `CS(=O)(=O)Nc1ccc2cc(C(=O)Nc3cccc(-c4ncccc4C(F)(F)F)c3)[nH]c2c1` [Example 290, 6-(methylsulfonamido)-N-(3-(3-(trifluoromethyl)pyridin-2-yl)phenyl)-1H-indole-2-carboxamide], the IC50 is 20.9 µM in the test on AGS, above 10 µM in the test with LNCaP and 7 µM at STAT3.
On the same counts, the results for `CS(=O)(=O)Nc1ccc2cc(C(=O)Nc3cccc(-c4cnccc4C(F)(F)F)c3)[nH]c2c1` [Example 291, 6-(methylsulfonamido)-N-(3-(4-(trifluoromethyl)pyridin-3-yl)phenyl)-1H-indole-2-carboxamide] are 13.9 µM, 8.1 µM and 3.2 µM.
On the same counts, the results for `O=C(Nc1cccc(-c2cccnc2C(F)(F)F)c1)c1cc2ccc([N+](=O)[O-])cc2[nH]1` [Example 292, 6-nitro-N-(3-(2-(trifluoromethyl)pyridin-3-yl)phenyl)-1H-indole-2-carboxamide] are 43.7 µM, above 10 µM and above 10 µM.
The like results for `CS(=O)(=O)Nc1ccc2cc(C(=O)Nc3cccc(-c4cnc(Cl)cc4C(F)(F)F)c3)[nH]c2c1` [Example 294, N-(3-(6-chloro-4-(trifluoromethyl)pyridin-3-yl)phenyl)-6-(methylsulfonamido)-1H-indole-2-carboxamide] were, in that order, 16.1 µM, 3.5 µM and 2.6 µM.
Take `COc1ccc(-c2cccc(NC(=O)c3cc4ccc([N+](=O)[O-])cc4[nH]3)c2)c(F)c1` [Example 295, N-(2′-fluoro-4′-methoxy-[1,1′-biphenyl]-3-yl)-6-nitro-1H-indole-2-carboxamide]: the IC50 with AGS was above 50 µM; with LNCaP it was above 10 µM; on STAT3, above 10 µM.
With `COc1ccc(-c2cccc(NC(=O)c3cc4ccc(NS(C)(=O)=O)cc4n3C(=O)OC(C)(C)C)c2)c(F)c1` [Example 296, tert-butyl 2-((2′-fluoro-4′-methoxy-[1,1′-biphenyl]-3-yl)carbamoyl)-6-(methylsulfonamido)-1H-indole-1-carboxylate], the figures for the IC50 in the test on AGS, in the test on LNCaP and at STAT3 were above 50 µM, above 10 µM and above 10 µM, respectively.
As to `COc1ccc(F)c(-c2ccnc(NC(=O)c3cc4ccc([N+](=O)[O-])cc4[nH]3)c2)c1` [Example 297, N-(4-(2-fluoro-5-methoxyphenyl)pyridin-2-yl)-6-nitro-1H-indole-2-carboxamide], the IC50 in the test on AGS is 21.6 µM; in the test on LNCaP, 8.6 µM; at STAT3 it was above 10 µM.
The like results for `COC(=O)c1ccc(Cl)c(-c2cccc(NC(=O)c3cc4ccc([N+](=O)[O-])cc4[nH]3)c2)c1` [Example 298, methyl 6-chloro-3′-(6-nitro-1H-indole-2-carboxamido)-[1,1′-biphenyl]-3-carboxylate] were, in that order, 31.7 µM, above 10 µM and above 10 µM.
The like results for `COC(=O)c1ccc(Cl)c(-c2cccc(NC(=O)c3cc4ccc(NS(C)(=O)=O)cc4[nH]3)c2)c1` [Example 299, methyl 6-chloro-3′-(6-(methylsulfonamido)-1H-indole-2-carboxamido)-[1,1′-biphenyl]-3-carboxylate] were, in that order, 43.1 µM, above 10 µM and 3.1 µM.
`COC(=O)c1ccc(Cl)c(-c2ccnc(NC(=O)c3cc4ccc(NS(C)(=O)=O)cc4[nH]3)c2)c1` [Example 300, methyl 4-chloro-3-(2-(6-(methylsulfonamido)-1H-indole-2-carboxamido)pyridin-4-yl)benzoate]: the concentration for half-maximal inhibition (IC50) with AGS is above 50 µM; with LNCaP, above 10 µM; against STAT3 it was 5.3 µM.
On the same counts, the results for `CS(=O)(=O)Nc1ccc2cc(C(=O)Nc3cc(C#N)cc(-c4ccc(F)cc4C(F)(F)F)c3)[nH]c2c1` [Example 315, N-(5-cyano-4′-fluoro-2′-(trifluoromethyl)-[1,1′-biphenyl]-3-yl)-6-(methylsulfonamido)-1H-indole-2-carboxamide] are 25.9 µM, 3 µM and 2.6 µM.
The like results for `CN(c1ccc2cc(C(=O)Nc3cccc(-c4ccccc4C(F)(F)F)c3)n(C)c2c1)S(C)(=O)=O` [Example 343, 1-methyl-6-(N-methylmethylsulfonamido)-N-(2′-(trifluoromethyl)-[1,1′-biphenyl]-3-yl)-1H-indole-2-carboxamide] were, in that order, 5.8 µM, 2.8 µM and 1.8 µM.
On the same counts, the results for `CN(c1ccc2cc(C(=O)Nc3cccc(-c4ccc(F)cc4F)c3)n(C)c2c1)S(C)(=O)=O` [Example 345, N-(2′,4′-difluoro-[1,1′-biphenyl]-3-yl)-1-methyl-6-(N-methylmethylsulfonamido)-1H-indole-2-carboxamide] are 6.9 µM, 3.5 µM and 1.6 µM.
